Inconclusive results and toxic doses are left out. No stated cut-off is given here; in the data, active means T/C of 150% or more; inactive means T/C below 125%.
System: L1210 leukemia ip in BDF1 mice, survival T/C
Test: NCI In Vivo Anticancer Drug Screen. Data for tumor model L1210 Leukemia (intraperitoneal) in B6D2F1 (BDF1) mice
Conditions: endpoint: mean survival time, higher = longer survival
Summary of the method: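 Each compound was tested against a transplantable tumor grown in mice. The endpoint was survival, with treated animals benchmarked against vehicle controls as a simple ratio.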

[1] = dose: 100.0 mg/kg/injection, schedule: Q01DX009 (ip), vehicle: Klucel (hydroxypropylcellulose) (HPC)
[2] = dose: 200.0 mg/kg/injection, schedule: Q01DX009 (ip), vehicle: Klucel (hydroxypropylcellulose) (HPC)
[3] = dose: 400.0 mg/kg/injection, schedule: Q01DX009 (ip), vehicle: Klucel (hydroxypropylcellulose) (HPC)

Measured: T/C

COc1ccc(NC(=O)Nc2ccc(S(N)(=O)=O)cc2)c(OC)c1
inactive: [1] 96 % of control | [2] 94 % of control | [3] 88 % of control

O=C1c2c(O)ccc([N+](=O)[O-])c2C(=O)c2c([N+](=O)[O-])ccc(O)c21
inactive: [1] 93 % of control | dose: 100.0 mg/kg/injection, schedule: Q04DX003 (ip), vehicle: Klucel (hydroxypropylcellulose) (HPC) 106 % of control | [2] 105 % of control | dose: 200.0 mg/kg/injection, schedule: Q04DX003 (ip), vehicle: Klucel (hydroxypropylcellulose) (HPC) 95 % of control | [3] 103 % of control | dose: 400.0 mg/kg/injection, schedule: Q04DX003 (ip), vehicle: Klucel (hydroxypropylcellulose) (HPC) 95 % of control

CC(C)CCCC(C)C1CCC2C3CC=C4CC(=O)CCC4(C)C3CCC12C (stereo unspecified)
inactive: dose: 100.0 mg/kg/injection, schedule: Q04DX002 (ip), vehicle: saline with Tween-80 98 % of control | dose: 400.0 mg/kg/injection, schedule: Q04DX002 (ip), vehicle: saline with Tween-80 88 % of control
